Patent US5795977A, “Water soluble adenosine kinase inhibitors” (Metabasis Therapeutics, Inc., priority 1996, dated 1998)
Where a name gives a salt, the structure may show the parent alone. Read-outs that look alike come from different tables or passages of the source.

Experiments:
rat cardiomyocytes = details: inhibition of adenosine deaminase alone; cited from earlier work
[1] = system: isolated guinea pig hearts; details: in the absence of ADA inhibition; cited from earlier work
ischemic cerebral injury = details: in vivo; cited from earlier work
mice [2] = details: cited from earlier work
isolated rat hearts = details: alone, cited from earlier work
Water solubility = type: physicochemical; details: suitable pH for i.v. administration (e.g. pH 4 to 10)
Experimental: The sample was sonicated for a period of up to 20 minutes. If a solution was not obtained, further solvent was added and the process was repeated until a clear solution was obtained, and the results were recorded. Solutions used were 50 mM potassium biphthalate (pH 4); 100 mM glycine (pH 9); 25 mM sodium carbonate and 25 mM sodium bicarbonate (pH 10); or deionized water (DI).

Rats (carrageenan paw) = assay: Anti-inflammatory activity, carrageenan paw swelling; type: in vivo; details: rat, 10 mg/kg, swelling after 3 hours; for Carrageenan Paw (% inhibition) po: oral gavage
Experimental: Carrageenan (Type λ) was suspended in sterile PBS at 1% (w/v), autoclaved for 30 minutes, and stored at room temperature. Rats were pretreated with vehicle or AK inhibitor (10 mg/kg) by oral gavage or i.p. administration and the volume of the left hind paw was measured using a water displacement plethysmometer (Stoelting Co., Wood Dale, Ill.). One hour after oral treatment or 30 minutes after i.p. treatment, the rats were briefly anesthetized, and 0.1 ml of the carrageenan solution was injected subcutaneously into the planar surface of the left hind paw. The ensuing paw swelling was measured by plethysmometry after 3 hours. The paw volume in millileters was […]. Data are presented in Table 2 as the percent inhibition of paw swelling in AK inhibitor treated animals, compared to vehicle treated control animals.

Female SA rats = assay: Liver toxicity assay; type: in vivo; details: rat, i.v. infusion, total dose 75 μmole/kg, serum
Experimental: Female SA rats (150-200 g) are anesthetized with halothane and cannulated via the internal jugular vein. The animals are allowed to recover for 3 days. At this time, 37.5 μmole/kg of an AK inhibitor is dissolved in 50% PEG400 and infused through the jugular catheter over 20 minutes. Twelve hours later, an additional 37.5 μmole/kg is infused over 20 minutes (total dose =75 μmole/kg). […] Liver enzymes (serum glutamic-oxaloacetic transaminase (SGOT), serum glutamic-pyruvic transaminase (SGPT), alkaline phosphatase) and total bilirubin in the serum samples are determined by a commercial laboratory.

[3] = system: male SA rats (maximal electroshock seizures); assay: Anticonvulsant activity, maximal electroshock seizures (MES); type: in vivo; details: rat, po, fasted; >> = no activity at the stated dose
Experimental: The anticonvulsant activity of the tested compounds was evaluated in male SA rats (100-150g, Simonsen) using the maximal electroshock (MES) model described in Swinyard et al., Antiepileptic Drugs, 3d Ed. at 85-102 (Levy, et al., eds.), NY: Raven Press (1989). The rats were maintained on a 12/12 light/dark cycle in temperature controlled facilities with free access to food and water. For p.o. administration, the animals are fasted overnight, prior to the experiment. One to two hours prior to seizure testing, the animals were injected interperitoneally (ip) or orally (per os, po) with one of various doses of test compound dissolved in DMSO or PEG 400.
This endpoint was expressed as the percentage of animals in which the response was inhibited.

Rats (formalin paw) = assay: Formalin paw assay; type: in vivo; details: rat, oral 90 min prior, 10.3-30 min post-formalin, vs vehicle
Experimental: In this assay, injection of formalin, an irritant, into the hindpaw of rats typically evokes a biphasic response of pain-related behaviors. Phase 1 of the response which is brief, lasting approximately 0-5 min post-injection,is followed by a more prolonged phase 2, lasting approximately 10-80 min post-injection. Phase 1 behavior is thought to be a direct effect of the irritant on nociceptors at the injection site while phase 2 behavior is thought to include a hyperalgesic component mediated by sensitization of neuronal elements within the spinal cord. Studies from other laboratories have found the first portion of Phase 2 (sometimes referred to as Phase 2a) to be most responsive to pharmacological manipulation.
Rats (male, Simonsen) weighing between 100-200 g, are used in the present experiments. For screening purposes drugs are administered orally 90 min prior to initiation of formalin test. At designated intervals the animals in groups of 4 are placed individually in a small animal restrainer with the right hindpaw accessible through a hole in the bottom of the restrainer. The formalin paw assay is initiated by the injection using a 30G needle of 50 ul of a 5% formalin solution in saline into the right plantar surface of each hindpaw. […]
Scores are continuously recorded directly onto an Excel spreadsheet.

[4] = target: partially purified pig heart adenosine kinase or recombinant human adenosine kinase; assay: AK inhibition; type: biochemical; details: 0.5 μM [U-14C] adenosine, pH 7.0, 37° C., 20 minutes
Experimental: Adenosine kinase activity was measured essentially as described by Yamada et al. Biochim. Biophys. Acta 660, 36-43 (1988) with a few minor modifications. Assay mixtures contained 50 mM TRIS-maleate buffer, pH 7.0, 0.1% BSA, 1 mM ATP 1 mM MgCl2, 0.5 μM [U-^14 C] adenosine (400-600 mCi/mmol) and varying duplicate concentrations of inhibitor. […] The amount of ^14 C-AMP was quantified by scintillation counting.

mice [5] = assay: HPLC analysis of plasma, metabolism in mice; type: in vivo, mouse; details: oral, 10 mg/kg

Row | Compound | Carrageenan Paw (% inhibition) ip (Rats (carrageenan paw)) [%] | SGOT (Female SA rats) [IU/L] | SGPT (Female SA rats) [IU/L] | Carrageenan Paw (% inhibition) po (Rats (carrageenan paw)) [%] | IC50 [4] [nM] | Total Bilirubin (Female SA rats) [mg/dL] | further results
1 | OC[C@H]1O[C@@H](n2cnc3c2N=CNC[C@H]3O)C[C@@H]1O [2'-deoxycoformycin] |  |  |  |  |  |  | adenosine release (rat cardiomyocytes): no effect on adenosine release
2 | NC[C@H]1O[C@@H](n2cnc3c(N)ncnc32)[C@H](O)[C@@H]1O [5'-amino-5'-deoxyadenosine] |  |  |  |  |  |  | effect on adenosine release [1]: not apparent
3 | Nc1ncnc2c1c(I)cn2[C@@H]1O[C@H](CO)[C@@H](O)[C@H]1O [5-iodotubercidin] |  |  |  |  |  |  | protection against ischemic cerebral injury (ischemic cerebral injury): does not protect against ischemic cerebral injury; flaccidity (skeletal muscle relaxation) (mice [2]): pronounced general flaccidity; perfusate adenosine concentration (isolated rat hearts; hypoxic, anoxic or ischemic conditions): no increase in perfusate adenosine concentration; perfusate adenosine concentration (isolated rat hearts; normoxic conditions): no increase in perfusate adenosine concentration
4 | C[C@H]1O[C@@H](n2cc(-c3ccccc3)c3c(Nc4ccccc4)ncnc32)[C@H](O)[C@@H]1O [5-phenyl-4-N-phenylamino-7-(5-deoxy-1-β-D-ribofuranosyl)pyrrolo[2,3-d]pyrimidine] |  |  |  |  |  |  | water solubility (Water solubility): less than 20 μg/ml
5 | C[C@H]1O[C@@H](n2cc(-c3ccccc3)c3c(Nc4ccc(CN(C)C)cc4)ncnc32)[C@H](O)[C@@H]1O [Compound 1, 4-N-(4-(N,N-Dimethylaminomethyl)phenyl)amino-5-phenyl-7-(5-deoxy-β-D-ribofuranosyl)pyrrolo[2,3-d]pyrimidine] | 26.0 | 75 | 44 |  |  |  | Alkaline Phosphatase (Female SA rats): 131 IU/L
6 | C[C@H]1O[C@@H](n2cc(-c3ccccc3)c3c(Nc4ccc(CCN5CCOCC5)cc4)ncnc32)[C@H](O)[C@@H]1O [Compound 3, 4-N-[4-(2-(4-morpholino)ethyl)phenyl]amino-5-phenyl-7-(5-deoxy-β-D-ribofuranosyl)pyrrolo[2,3-d]pyrimidine] | 19.5 |  |  | 9.8 | 2 |  | ED50 [3]: > 10 mg/kg; Phase 2 composite score, percent inhibition (Rats (formalin paw)): 31%
7 | CCN(CC)CCNCCc1ccc(Nc2ncnc3c2c(-c2ccccc2)cn3[C@@H]2O[C@H](C)[C@@H](O)[C@H]2O)cc1 [Compound 5, 4-N-[4-(2-(2-N,N-diethylaminoethyleneamino)ethyl)phenyl]amino-5-phenyl-7-(5-deoxy-β-D-ribofuranosyl)pyrrolo[2,3-d]pyrimidine] | 0.0 |  |  | 4.1 | 1 |  | ED50 [3]: > 10 mg/kg
8 | CCN(CC)CCc1ccc(Nc2ncnc3c2c(-c2ccccc2)cn3[C@@H]2O[C@H](C)[C@@H](O)[C@H]2O)cc1 [Compound 6, 4-N-[4-(2-N,N-diethylaminoethyl)phenyl]amino-5-phenyl-7-(5-deoxy-β-D-ribofuranosyl)pyrrolo[2,3-d]pyrimidine] | 81.5 | 306 | 110 | 42.6 | 1 | 0.43 | Alkaline Phosphatase (Female SA rats): 104 IU/L
9 | OC[C@@H]1O[C@@H](n2cc(-c3ccccc3)c3c(Nc4ccc(CCN5CCNCC5)cc4)ncnc32)[C@H](O)[C@@H]1O [Compound 12, 4-N-[4-(1-piperazinoethyl)phenyl]amino-5-phenyl-7-α-L-lyxofuranosylpyrrolo[2,3-d]pyrimidine] | 58.8 | 211 | 76 | 51.0 | 0.3 | 0.41 | Alkaline Phosphatase (Female SA rats): 106 IU/L
10 | C[C@H]1O[C@@H](n2cc(I)c3c(NCCc4ccccn4)ncnc32)[C@H](O)[C@@H]1O [Compound 43, 4-N-(2-(2-pyridylethyl)amino)-5-iodo-7-(5-deoxy-1-β-D-ribofuranosyl)pyrrolo[2,3-d]pyrimidine] |  |  |  |  | 10000 |  | metabolism to a potent AK inhibitor, HPLC analysis of plasma (mice [5]): undergo metabolism in mice after oral administratio
11 | C[C@H]1O[C@@H](n2cc(-c3ccccc3)c3c(NCc4ccncc4)ncnc32)[C@H](O)[C@@H]1O [Compound 49, 4-N-(4-pyridylmethyl)amino-5-phenyl-7-(5-deoxy-1-β-D-ribofuranosyl)-pyrrolo[2,3-d]pyrimidine] |  |  |  |  | 67 |  | ED50 [3]: > 40 mg/kg
12 | C[C@H]1O[C@@H](n2cc(I)c3c(N)ncnc32)[C@H](O)[C@@H]1O [REF.A, reference compound] |  |  | 76 |  |  | 0.76 | flaccidity (skeletal muscle relaxation) (mice [2]): pronounced general flaccidity
13 | NC[C@H]1O[C@@H](n2nc(Br)c3c(N)ncnc32)[C@H](O)[C@@H]1O [REF.B, 4amino-1-(5-amino-5-deoxy-1-D-ribofuranosyl)-3-bromopyrazolo[3,4d]pyrimidne HCL, reference compound] |  | 100 | 41 |  |  | 0.30 | 
